From patent publication US20030186845A1, “Compositions for preventing urinary calculus” (priority 2000, published 2003)

Tests used:
male rats [1] = experiment: Calculus prevention effect by chelating agents (repeated intravenous administration, 2 weeks); assay type: in vivo; settings: for Calculi / Hyperplasia of vesical transitional epithelium / Urinary occult blood: mixed with R-CHI3-DTPA-Gd 0.33 mmol/kg i.v.; for Calculi / Hyperplasia of vesical transitional epithelium / Effect of inhibiting production of calculi: male rats; for Urinary occult blood: occurrences/total daily inspections for 14 days; for Effect of inhibiting production of calculi: specimens of R-CHI3-DTPA-Gd mixed with chelating agent, summary in words
Experimental: To R-CHI3-DTPA-Gd, was added diethylenetriaminepentaacetic acid (DTPA), its calcium complex, or calcium complex of ethylenediaminetetraacetic acid (EDTA). Using them as specimens, toxicity studies by repeated intravenous administration were conducted on male rats for 2 weeks. A group, which is called DTPA-10 group, was administered with a specimen of R-CHI3-DTPA-Gd mixed with DTPA in an amount equivalent to 10 mmol per 500 mmol of the DTPA-Gd portion of the R-CHI3-DTPA-Gd; a group, which is called DTPA-Ca-10 group, was administered with a specimen mixed with calcium complex of DTPA in an amount equivalent to 10 mmol; a group, which is called EDTA-Ca-1 group, was administered with a specimen mixed with calcium complex of EDTA in an amount equivalent 1 mmol; and a group, which is called EDTA-Ca-10 group, was administered with a specimen mixed with calcium complex of EDTA in an amount equivalent to 10 mmol. DTPA and others were mixed with R-CHI3-DTPA-Gd immediately before administration. As control groups, were set up a group that was administered with a physiological saline and a group that was free from a chelating agent (i.e., administered with R-CHI3-DTPA-Gd only). Except the physiological saline-administered group, the dose as R-CHI3-DTPA-Gd was 0.33 mmol/kg.
(The chelating agent-free group is estimated to include individuals that discharged calculi from their urinary bladders, judging from the hyperplasia of vesical transitional epithelium and the frequency of urinary occult blood.)

male rats [2] = experiment: Calculus prevention effect by DTPA (repeated intravenous administration, 2 weeks, two lots); assay type: in vivo; settings: for Urinary occult blood: occurrences/inspections
Experimental: Toxicity studies by repeated intravenous administration were conducted on male rats for 2 weeks using, as a specimen, R-CHI3-DTPA-Gd to which DTPA was added. In this test, two lots (hereinafter called lot #1 and lot #2) of R-CHI3-DTPA-Gd were provided, and the following administered groups were set up. […] As control groups, were set up a group that was administered with a physiological saline and a group that was free from a chelating agent (i.e., administered with […] of lot (1) only). Except the physiological saline-administered group, the dose as R-CHI3-DTPA-Gd was 0.33 mmol/kg.

[3] = chelating agent 10 mmol per 500 mmol DTPA-Gd portion
[4] = DTPA 1 mmol per 500 mmol DTPA-Gd portion, R-CHI3-DTPA-Gd lot #1, 0.33 mmol/kg i.v.
[5] = DTPA 1 mmol per 500 mmol DTPA-Gd portion, R-CHI3-DTPA-Gd lot #2, 0.33 mmol/kg i.v.
[6] = DTPA 1.3 mmol per 500 mmol DTPA-Gd portion, R-CHI3-DTPA-Gd lot #2, 0.33 mmol/kg i.v.
[7] = DTPA 3 mmol per 500 mmol DTPA-Gd portion, R-CHI3-DTPA-Gd lot #1, 0.33 mmol/kg i.v.
[8] = DTPA 10 mmol per 500 mmol DTPA-Gd portion, R-CHI3-DTPA-Gd lot #2, 0.33 mmol/kg i.v.
[9] = chelating agent 1 mmol per 500 mmol DTPA-Gd portion

For `O=C(O)CN(CCN(CC(=O)O)CC(=O)O)CCN(CC(=O)O)CC(=O)O` [DTPA, diethylenetriaminepentaacetic acid], the Calculi (male rats [1]; [3]) was 0/10, the “Hyperplasia of vesical transitional epithelium” value (shortened to “Hyperplasia”) (male rats [1]; [3]) was 0/10 and the Urinary occult blood (male rats [1]; [3]) was 8/140. The “Effect of inhibiting production of calculi” value (male rats [1]) was “significant effect”, the Calculi (male rats [2]; [4]) was 5/10 and the “Hyperplasia” value (male rats [2]; [4]) was 7/10. The Urinary occult blood (male rats [2]; [4]) was 24/140, the Calculi (male rats [2]; [5]) was 5/10 and the “Hyperplasia” value (male rats [2]; [5]) was 6/10. For the same molecule, the Urinary occult blood (male rats [2]; [5]) was 27/140, the Calculi (male rats [2]; [6]) was 5/10 and the “Hyperplasia” value (male rats [2]; [6]) was 7/10. The Urinary occult blood (male rats [2]; [6]) was 26/140, the Calculi (male rats [2]; [7]) was 5/10 and the “Hyperplasia” value (male rats [2]; [7]) was 5/10. The Urinary occult blood (male rats [2]; [7]) was 17/140, the Calculi (male rats [2]; [8]) was 3/10 and the “Hyperplasia” value (male rats [2]; [8]) was 4/10. The Urinary occult blood (male rats [2]; [8]) was 19/140.
In the case of `O=C([O-])CN(CCN(CCN(CC(=O)[O-])CC(=O)O)CC(=O)O)CC(=O)O.[Ca+2]` [DTPA-Ca], the Calculi (male rats [1]; [3]) is reported as 0/10, the “Hyperplasia” value (male rats [1]; [3]) is reported as 0/10 and the Urinary occult blood (male rats [1]; [3]) is reported as 3/140. For the same molecule, the “Effect of inhibiting production of calculi” value (male rats [1]) was “significant effect”.
`O=C([O-])CN(CCN(CC(=O)[O-])CC(=O)O)CC(=O)O.[Ca+2]` [EDTA-Ca] was tested, and the Calculi (male rats [1]; [9]) was 4/10, the “Hyperplasia” value (male rats [1]; [9]) was 2/10 and the Urinary occult blood (male rats [1]; [9]) was 17/140. For the same molecule, the Calculi (male rats [1]; [3]) was 1/10, the “Hyperplasia” value (male rats [1]; [3]) was 1/10 and the Urinary occult blood (male rats [1]; [3]) was 6/140. For the same molecule, the “Effect of inhibiting production of calculi” value (male rats [1]) was “week effect”.
